Measurements published in US5189169A (priority 1991, dated 1993).
Values joined by “and” are separate entries in the source; they are usually repeats but may differ in a detail not shown here. Equal values may be shown once.

Legend:
[1] = test system: three grassy weeds (wild oat, watergrass, foxtail); parameters: species or system Avena fatua, Echinochloa crusgalli, Setaria viridis; settings: in vivo
[2] = test system: three broadleaf weeds (morning glory, mustard, velvetleaf); parameters: species or system Ipomoea purpurea, Brassica kaber, Abutilon theophrasti; settings: in vivo
yellow nutsedge [3] = test system: yellow nutsedge; parameters: species or system Cyperus esculentus; settings: in vivo
[4] = test system: three broadleaf weeds (morning glory, mustard, velvetleaf); parameters: species or system Ipomoea purpurea, Brassica kaber, Abutilon theophrasti; settings: in vivo; remark: listed apart in the source
yellow nutsedge [5] = test system: yellow nutsedge; parameters: species or system Cyperus esculentus; settings: in vivo; remark: listed apart in the source
[6] = test system: four grassy weeds: wild oat, watergrass, green foxtail and crabgrass; experiment: Post-emergence herbicidal activity, grassy weeds (Table III); format: in vivo; settings: 2.24 kg/ha, 2-3 weeks after treatment
Experimental: (§1) The herbicidal effect was observed by comparing the extent of weed control in test flats treated with the compounds against that occurring in similar non-treated control flats. All were applied at 3.57 lb/A (4 kg/ha) to pre-emergence and post-emergence screening flats. An 80 gal/A (748.3 1/ha) spray volume was utilized. Post-emergence flats were seeded 12 days prior to treatment. Pre-emergence flats were seeded one day prior to treatment. Overhead watering of pre-emergence flats and soil surface watering of post-emergence flats, so as to avoid wetting the foliage, were carried out for the duration of the test.
(§2) Weed seeds were planted in a flat at a seed depth of 0.5 inch (1.3 cm). Soil for flats was prepared using loam soil fortified with 17-17-17 fertilizer (N-P2 O5 -K2 O on a weight basis) and Captan 80W fungicide. The test weeds were as follows:
(§3) The spray solutions were prepared by dissolving 240 mg of test compound in 20 ml of acetone containing 1% polyoxyethylene sorbitan monolaurate emulsifier, then adding 20 ml of water to the resulting solution. The spray solutions were applied using a linear spray table. Pre-emergence flats are raised to the level of the post-emergence foliage canopy by setting the flats on a wooden block.
(§4) The degree of weed control was visually assessed and recorded as percentage control compared to the growth of the same species in an untreated check flat of the same age. The rating scale ranges from 0 to 100%, where 0 equals no effect with plant growth equal to the untreated control, and 100 equals complete kill.
(§5) Compounds 68 to 145 in Table I were tested generally similarly to Compounds No. 1 to 67 with the following differences: The rate of application was 2 lb/acre (2.24 kg/ha), no 6-day evaluations were made, and the weeds were:
Four grassy weeds: wild oat, watergrass, green foxtail and crabgrass (Digitaria sanguinalis);
(§6) Ratings were taken 2-3 weeks after treatment.

[7] = test system: three broadleaf weeds: wild mustard, redroot pigweed and curly dock; experiment: Post-emergence herbicidal activity, broadleaf weeds (Table III); format: in vivo, Brassica kaber, Amaranthus retroflexus, Rumex crispus; settings: 2.24 kg/ha, 2-3 weeks after treatment
Experimental: as §1, §2, §3, §4, §5
Three broadleaf weeds: wild mustard, redroot pigweed (Amaranthus retroflexus) and curly dock (Rumex crispus).
as §6

Compound | % Control, Pre-emergence, GR avg. [1] [%] | % Control, Pre-emergence, BL avg. [2] [%] | % Control, Pre-emergence, NS (yellow nutsedge [3]) [%] | % Control, Post-emergence, BL avg. [4] | % Control, Post-emergence, NS (yellow nutsedge [5]) | % Control, Post-Emergence, GR Avg. [6] [%] | % Control, Post-Emergence, BL Avg. [7] [%]
CCCSP(=O)(N(CCC)CCC)N(C)c1cc(F)ccc1C (stereo not shown) [Compound 67] | 0 | 16 | 0 | 95% and 100% | 0% |  | 
CCCSP(=O)(N(CC)CC)N1CCCCCC1 (stereo not shown) [Compound 92] |  |  |  |  |  | 62 | 86
CCCN(CCC)P(=O)(Sc1cccc(Cl)c1)N(CCC)CCC [Compound 60] | 0 | 13 | 0 | 75% and 73% | 0% |  | 
CCCCCN(CCCCC)P(=O)(SCCC)N(C)c1ccc(Cl)cc1 (stereo not shown) [Compound 17] | 57 | 33 | 0 | 50% and 43% | 10% and 0% |  | 
CCCCN(CC)P(=O)(SC(C)c1ccccc1)N(CC)CC (stereo not shown) [Compound 143] |  |  |  |  |  | 52 | 69
CCCCSP(=O)(N(CCC)CCC)N1CCCCC1 (stereo not shown) [Compound 74] |  |  |  |  |  | 47 | 100
CCCSP(=O)(N(CCC)CCC)N(C)c1cc(Cl)ccc1Cl (stereo not shown) [Compound 34] | 0 | 0 | 0 | 80% and 93% | 0% |  | 
CCCCN(CCCC)P(=O)(SC1CCCCC1)N(CCCC)CCCC [Compound 136] |  |  |  |  |  | 50 | 90
CCCCN(CC)P(=O)(SC(C)C)N(CC)CC (stereo not shown) [Compound 140] |  |  |  |  |  | 68 | 66
CCCCSP(=O)(N(CC)CC)N1CCCCCC1 (stereo not shown) [Compound 93] |  |  |  |  |  | 73 | 99
CCCCSP(=O)(N(C)C)N(CCCC)CCCC (stereo not shown) [Compound 110] |  |  |  |  |  | 93 | 98
CCCCN(CC)P(=O)(SCC)N(CC)CC (stereo not shown) [Compound 138] |  |  |  |  |  | 63 | 69
CCN(CC)P(=O)(SCc1ccccc1)N(CC)CC [Compound 94] |  |  |  |  |  | 30 | 70
CCN(CC)P(=O)(SC(C)C)N(CC)CC [Compound 103] |  |  |  |  |  | 67 | 73
CCCCSP(=O)(N(CC)CC)N(CC)CCCC (stereo not shown) [Compound 141] |  |  |  |  |  | 65 | 86
CCCCN(CCCC)P(=O)(SCCC)N(C)c1ccc(Cl)c(Cl)c1 (stereo not shown) [Compound 21] | 0 | 0 | 0 | 20% and 40% | 0% |  | 
CCCCN(CCCC)P(=O)(SC(C)(C)C)N(C)C (stereo not shown) [Compound 106] |  |  |  |  |  | 65 | 91
CCCSP(=O)(N(CCC)CCC)N(CC)c1ccc(F)cc1 (stereo not shown) [Compound 54] | 0 | 8 | 0 | 100% | 0% |  | 
CCCCN(c1ccc(F)cc1)P(=O)(SCCC)N(CCC)CCC (stereo not shown) [Compound 55] | 13 | 3 | 5 | 90% and 86% | 0% |  | 
CCC(C)SP(=O)(N(CC)CC)N(CC)CC (stereo not shown) [Compound 104] |  |  |  |  |  | 77 | 87
CCCCN(CC)P(=O)(SCCC)N(CC)CC (stereo not shown) [Compound 139] |  |  |  |  |  | 65 | 70
CCCCCCSP(=O)(N(CCCC)CCCC)N(CCCC)CCCC [Compound 134] |  |  |  |  |  | 56 | 90

Compound | % Control, Pre-emergence, GR avg. [1] [%] | % Control, Pre-emergence, BL avg. [2] [%] | % Control, Pre-emergence, NS (yellow nutsedge [3]) [%] | % Control, Post-emergence, BL avg. [4] | % Control, Post-emergence, NS (yellow nutsedge [5]) | % Control, Post-Emergence, GR Avg. [6] [%] | % Control, Post-Emergence, BL Avg. [7] [%]
CCCN(CCC)P(=O)(SCC)N(CC)CC (stereo not shown) [Compound 144] |  |  |  |  |  | 59 | 78
CCCSP(=O)(N(CCC)CCC)N(C)c1ccc(C#N)cc1 (stereo not shown) [Compound 41] | 0 | 0 | 0 |  | 0% |  | 
CCCCN(CCCC)P(=O)(SCCC)N(C)c1ccc(Cl)cc1OC (stereo not shown) [Compound 18] | 0 | 0 | 0 | 30% and 60% | 0% |  | 
CCCSP(=O)(N(CCC)CCC)N(C)c1ccc(OC(F)(F)F)c(Cl)c1 (stereo not shown) [Compound 66] | 0 | 10 | 0 | 90% and 98% | 0% and 5% |  | 
CCCSP(=O)(N(CCC)CCC)N(C)c1ccc(F)c(F)c1F (stereo not shown) [Compound 47] | 0 | 0 | 0 | 100% and 98% | 0% |  | 
CCCN(CCC)P(=O)(SCC)N1CCCCC1 (stereo not shown) [Compound 72] |  |  |  |  |  | 50 | 86
CCCCN(CCCC)P(=O)(SCC)N(C)C (stereo not shown) [Compound 107] |  |  |  |  |  | 64 | 98
CCCSP(=O)(N(CCC)CCC)N(C)c1ccc(OC)cc1C (stereo not shown) [Compound 65] | 0 | 0 | 0 | 70% and 76% | 0% |  | 
CCCSP(=O)(N(CCC)CCC)N1CCCCC1 (stereo not shown) [Compound 73] |  |  |  |  |  | 55 | 87
CCCCN(CC)P(=O)(SC1CCCCC1)N(CCC)CCC (stereo not shown) [Compound 137] |  |  |  |  |  | 53 | 88
CCCC(CC)SP(=O)(N(CC)CC)N(CC)CC (stereo not shown) [Compound 105] |  |  |  |  |  | 54.5 | 73
CCCCSP(=O)(N(CCC)CCC)N(C)c1ccccc1 (stereo not shown) [Compound 121] |  |  |  |  |  | 59 | 72
CCCSP(=O)(N(CCC)CCC)N(C)c1ccc(F)cc1F (stereo not shown) [Compound 19] | 0 | 0 |  |  | 0% |  | 
CCN(CC)P(=O)(SC(C)C)N1CCCCCC1 (stereo not shown) [Compound 101] |  |  |  |  |  | 69 | 100
CCCSP(=O)(N(CCC)CCC)N(C)c1ccc(C(C)C)cc1 (stereo not shown) [Compound 58] | 0 | 0 | 0 | 70% and 61% | 0% |  | 
CCCSP(=O)(N(CCC)CCC)N(C)c1ccc(F)cc1C (stereo not shown) [Compound 64] | 3 | 0 | 0 | 85% and 93% | 0% and 5% |  | 
CCCCN(CCCC)P(=O)(SCc1ccccc1)N(C)C (stereo not shown) [Compound 113] |  |  |  |  |  | 48 | 83
C=CCSP(=O)(N(C)C)N(CCCC)CCCC (stereo not shown) [Compound 112] |  |  |  |  |  | 56 | 87
CCCN(CCC)P(=O)(SC(C)C)N(C)c1ccccc1 (stereo not shown) [Compound 120] |  |  |  |  |  | 50 | 71
CCCN(CCC)P(=O)(SC(C)CC)N(C)c1ccccc1 (stereo not shown) [Compound 122] |  |  |  |  |  | 56 | 79
C=CCSP(=O)(N(CCC)CCC)N1CCCCCC1 (stereo not shown) [Compound 100] |  |  |  |  |  | 63 | 95
CCCSP(=O)(N(CC)CC)N(CC)CC [Compound 68] |  |  |  |  |  | 40 | 87
